Experimental data as given in US10562863B2, “Heterobifunctional linker” (THE GOVERNORS OF THE UNIVERSITY OF ALBERTA, priority 2016, dated 2020).

target: T1, branched-chain amino acid-binding protein LivF (Escherichia coli, UniProt P0AD96); assay: Competitive lateral flow assay, LivF test band; design: species or system E. coli; details: free Leu 0.5 and 2 mg/ml; 1M urea; citrate 2 mg/ml
T1 construct: inferred from the pET15b vector and Ni-NTA purification; made in house; host or cells: E. coli BL21
T1 sequence (P0AD96 24-367): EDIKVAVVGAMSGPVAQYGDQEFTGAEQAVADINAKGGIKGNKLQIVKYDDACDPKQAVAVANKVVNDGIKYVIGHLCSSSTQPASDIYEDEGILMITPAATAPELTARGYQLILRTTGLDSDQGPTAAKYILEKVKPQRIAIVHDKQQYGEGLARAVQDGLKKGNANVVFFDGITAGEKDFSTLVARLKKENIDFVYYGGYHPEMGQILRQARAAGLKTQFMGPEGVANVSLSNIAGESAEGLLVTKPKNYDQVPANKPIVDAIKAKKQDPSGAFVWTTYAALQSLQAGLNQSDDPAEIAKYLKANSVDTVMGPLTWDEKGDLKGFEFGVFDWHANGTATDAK
Source text: We generated a useful metabolite sensor using a combination of a lateral flow assay (LFA), a metabolite-L1-AuNP conjugate (Leucine) and metabolite-specific protein. […] In our assay, the branched-chain amino acid-binding protein LivF35 was loaded onto nitrocellulose strips as the detection protein (“Test band”) and as the “Control band” the glutamate/aspartate binding protein Gltl36 was used, since the gold nanoparticles are stabilized with glutamate on their surface and that can be detected by Gltl as flow control. Leucine-decorated gold nanoparticles were loaded at the end of the strip in solution, with or without competing free leucine and the flow assay was performed.
To prepare the LFA strips, lug of each protein (from a 0.5 ug/ul solution in 50 mM phosphate buffer, pH 7.5) was loaded onto FF80 nitrocellulose strips as a 0.5 cm line. 20 ul of a suspension of metabolite-coated AuNPs (3 mg/mL) was loaded onto the end of the membrane strips and allowed to flow through via capillary action. Bands showing the captured gold nanoparticles were documented with an electronic flatbed scanner (Canon Canoscan 5600).

Row | Structure (SMILES) | Effect of free metabolite on LivF detection of leucine-coated AuNP
1 | O=C(O)CC(O)(CC(=O)O)C(=O)O [citrate] | not hampered
2 | CC(C)C[C@H](N)C(=O)O [free leucine, leucine] | abrogated
3 | NC(N)=O [urea] | not hampered
